The test system of test [1] is adult mongrel dogs. In words: Acute in vivo cardiotonic activity in anesthetized dogs. To be noted: Canis lupus familiaris, iv, relative to controls; for change in vivo at 1.87 mg/kg: dose 1.87 mpk; for change in vivo at 0.375 mg/kg: dose 0.375 mpk; for change in vivo at 0.875 mg/kg: dose 0.875 mpk. Details: species or system mongrel dog. The method, then:
The acute in vivo cardiotonic activity of compounds prepared according to the present invention was determined according to a modification of the procedure described by Alousi et al., Circ.
In particular, adult mongrel dogs were anesthetized with sodium pentobarbital and were artificially respired. Arterial pressure was monitored via a femoral artery, and the pulse pressure was used to trigger a cardiotachometer for heart rate. Left ventricular pressure was determined with a Millar catheter, and dP/dT (the change in ventricular pressure with time) was derived. Cardiac output was determined by measuring ascending aortic blood flow with an electromagnetic flow probe, and myocardial contractile force was measured with a Walton Brodie strain gauge sutured to the right ventricle. Lead II EKG was also recorded.
A standard dose (10 μg/kg/min) of dopamine was administered to assess myocardial responsiveness.
Compounds of the invention were administered by intravenous infusion and the effects on cardiovascular parameters were determined.

Test [2] relates to adult mongrel dogs. In words: Renal vasodilating activity in anesthetized dogs. In kind it is in vivo, mongrel dog. To be noted: Canis lupus familiaris. The method, then:
Goldberg et al., J. Pharmacol. Exp. Ther., 163, 188 (1968), performed an investigation of the structural requirements for dopamine-like renal vasodilation of phenethylamines and apomorphine. The following procedure is a variation of the assay described in that report.
Adult mongrel dogs were anesthetized and surgically prepared for electromagnetic measurement of renal artery blood flow. A carotid artery was cannulated for measuring arterial blood pressure and drugs were administered intravenously or intraarterially (via the renal artery). Heart rate was monitored with a cardiotachometer. Renal vascular resistance was calculated as the ratio of mean arterial blood pressure to renal artery blood flow. Dopamine was infused intravenously at 3 μg/kg/min for ten minutes (at an infusion rate of about 1 ml/min) to determine responsiveness of each dog to renal dopamine receptor stimulation. Cumulative dose-response data were obtained by infusing a compound of this invention at progressively increasing (usually three-fold) infusion rates, each dose being infused for five minutes. The maximum percent change from pre-drug control in renal artery blood flow (or in renal vascular resistance) was determined for each infusion dose.
RBF, RVR, MABP, and HR values are percent changes in renal blood flow, renal vascular resistance, mean arterial blood pressure, and heart rate, respectively, relative to control values.

The mark [3] stands for this setting: read-out: CF: percent change in cardiac force.
[4] abbreviates: read-out: HR: percent change in heart rate.
Where [5] appears, read: read-out: MABP: percent change in mean arterial blood pressure.
Setting [6] is: read-out: dP/dT: maximum percent change in left ventricular pressure with time.
[7] abbreviates: dose 6.2 mpk, relative to controls, read-out: HR: percent change in heart rate.
Where [8] appears, read: dose 6.2 mpk, relative to controls, read-out: MABP: percent change in mean arterial blood pressure.
Setting [9] is: dose 6.2 mpk, relative to controls, read-out: RBF: percent change in renal blood flow.
Setting [10] is: dose 6.2 mpk, relative to controls, read-out: RVR: percent change in renal vascular resistance.
Where [11] appears, read: read-out: HR: percent change in heart rate, dose 6.2 mpk, relative to controls.
Setting [12] is: read-out: MABP: percent change in mean arterial blood pressure, dose 6.2 mpk, relative to controls.
[13] abbreviates: read-out: RBF: percent change in renal blood flow, dose 6.2 mpk, relative to controls.
The mark [14] stands for this setting: read-out: RVR: percent change in renal vascular resistance, dose 6.2 mpk, relative to controls.
Where [15] appears, read: read-out: HR: percent change in heart rate, dose 1.2 mpk, relative to controls.
Where [16] appears, read: read-out: MABP: percent change in mean arterial blood pressure, dose 1.2 mpk, relative to controls.
[17] abbreviates: read-out: RBF: percent change in renal blood flow, dose 1.2 mpk, relative to controls.
[18] abbreviates: read-out: RVR: percent change in renal vascular resistance, dose 1.2 mpk, relative to controls.

The structures appear in SMILES notation. Where two headings read alike, the source gives them in different places.

As for `COc1cc2c(C)nc(OC(=O)N(C)C)c(N)c2cc1OC` [Cmpd 39], the change in vivo at 1.87 mg/kg is 76% with adult mongrel dogs [1] (setting [3]), 16% with adult mongrel dogs [1] (setting [4]), -1% with adult mongrel dogs [1] (setting [5]) and 73% with adult mongrel dogs [1] (setting [6]).

On to `COc1cc2c(C)nc(OS(=O)(=O)N(C)C)c([N+](=O)[O-])c2cc1OC` [Cmpd 25], for which the change in vivo at 6.2 mg/kg in the test with adult mongrel dogs [2] (setting [7]) is 32%; in the test on adult mongrel dogs [2] (setting [8]), -12%; in the test on adult mongrel dogs [2] (setting [9]), 61%; in the test on adult mongrel dogs [2] (setting [10]), -46%. The change in vivo at 1.87 mg/kg in the test with adult mongrel dogs [1] (setting [3]) was found to be 49%; in the test with adult mongrel dogs [1] (setting [4]), 5%; with adult mongrel dogs [1] (setting [5]), 12%; in the test on adult mongrel dogs [1] (setting [6]), 61%.

As for `CCOc1cc2c(C)nc(OC(=O)CC)c([N+](=O)[O-])c2cc1OC` [Cmpd 4], the change in vivo at 0.375 mg/kg in the test on adult mongrel dogs [1] (setting [3]) was 100%; in the test on adult mongrel dogs [1] (setting [4]), 7%; in the test with adult mongrel dogs [1] (setting [5]), -25%; in the test with adult mongrel dogs [1] (setting [6]), 46%.

On to `COc1cc2c(C)nc(OC(=O)N(C)C)c([N+](=O)[O-])c2cc1OC` [Cmpd 13], for which the change in vivo at 6.2 mg/kg with adult mongrel dogs [2] (setting [11]) was 12%; in the test with adult mongrel dogs [2] (setting [12]) it was -5%; in the test on adult mongrel dogs [2] (setting [13]), 8%; in the test with adult mongrel dogs [2] (setting [14]) it was -12%. Besides, the change in vivo at 1.87 mg/kg in the test on adult mongrel dogs [1] (setting [3]) is 49%; in the test with adult mongrel dogs [1] (setting [4]) it was 6%; in the test on adult mongrel dogs [1] (setting [5]), -8%; in the test on adult mongrel dogs [1] (setting [6]), 24%.

Turning to `COc1cc2c(C)nc(OC(=O)c3ccccc3)c([N+](=O)[O-])c2cc1OC` [Cmpd 7], the change in vivo at 0.875 mg/kg is 59% in the test on adult mongrel dogs [1] (setting [3]), 4% in the test with adult mongrel dogs [1] (setting [4]), -10% in the test on adult mongrel dogs [1] (setting [5]) and 34% in the test on adult mongrel dogs [1] (setting [6]).

For the compound `CCN(CC)c1c(OC(C)=O)nc(C)c2cc(OC)c(OC)cc12` [Cmpd 29, 3-Acetoxy-4-(N,N-diethylamino)-6,7-dimethoxy-1-methylisoquinoline 1/2 Hydrate], the change in vivo at 1.87 mg/kg in the test on adult mongrel dogs [1] (setting [3]) came out at 79%; in the test with adult mongrel dogs [1] (setting [4]), 13%; with adult mongrel dogs [1] (setting [5]), 6%; in the test on adult mongrel dogs [1] (setting [6]), 58%.

On to `CCOc1cc2c(C)nc(OC(=O)c3ccccc3)c([N+](=O)[O-])c2cc1OC` [Cmpd 8], for which the change in vivo at 0.375 mg/kg with adult mongrel dogs [1] (setting [3]) was 124%; with adult mongrel dogs [1] (setting [4]), 10%; in the test with adult mongrel dogs [1] (setting [5]), -20%; with adult mongrel dogs [1] (setting [6]), 54%.

`CCC(=O)Nc1c(OC(=O)CC)nc(C)c2cc(OC)c(OC)cc12` [Cmpd 33, 6,7-Dimethoxy-1-methyl-4-[N-propanamido]-3-propanoyloxyisoquinoline]: the change in vivo at 6.2 mg/kg in the test with adult mongrel dogs [2] (setting [7]) was -9%; in the test on adult mongrel dogs [2] (setting [8]), -9%; in the test with adult mongrel dogs [2] (setting [9]) it was 41%; with adult mongrel dogs [2] (setting [10]), -35%. For the same compound, the change in vivo at 1.87 mg/kg worked out at 132% with adult mongrel dogs [1] (setting [3]), 18% in the test on adult mongrel dogs [1] (setting [4]), 17% with adult mongrel dogs [1] (setting [5]) and 84% in the test on adult mongrel dogs [1] (setting [6]).

Regarding `CCOc1cc2c([N+](=O)[O-])c(OC(=O)C(C)(C)C)nc(C)c2cc1OC` [Cmpd 23], the change in vivo at 1.87 mg/kg is 27% in the test with adult mongrel dogs [1] (setting [3]), 5% with adult mongrel dogs [1] (setting [4]), 3% in the test on adult mongrel dogs [1] (setting [5]) and 24% in the test on adult mongrel dogs [1] (setting [6]).

For `CCOc1cc2c(C)nc(OC(=O)N(CC)CC)c([N+](=O)[O-])c2cc1OC` [Cmpd 28], the change in vivo at 6.2 mg/kg in the test on adult mongrel dogs [2] (setting [11]) was 5%; with adult mongrel dogs [2] (setting [12]), -18%; in the test with adult mongrel dogs [2] (setting [13]) it was 50%; in the test on adult mongrel dogs [2] (setting [14]) it was -45%. Besides, the change in vivo at 0.875 mg/kg was 71% in the test with adult mongrel dogs [1] (setting [3]), 27% in the test on adult mongrel dogs [1] (setting [4]), -4% in the test with adult mongrel dogs [1] (setting [5]) and 70% with adult mongrel dogs [1] (setting [6]).

For the compound `COc1cc2c(C)nc(OC(=O)N(c3ccccc3)c3ccccc3)c(N)c2cc1OC` [Cmpd 36], the change in vivo at 1.87 mg/kg in the test on adult mongrel dogs [1] (setting [3]) was 26%; in the test with adult mongrel dogs [1] (setting [4]), 9%; in the test on adult mongrel dogs [1] (setting [5]) it was -1%; in the test on adult mongrel dogs [1] (setting [6]) it was 26%.

Turning to `CCCC(=O)Oc1nc(C)c2cc(OC)c(OC)cc2c1[N+](=O)[O-]` [Cmpd 41], the change in vivo at 1.87 mg/kg was 166% in the test on adult mongrel dogs [1] (setting [3]), 29% in the test on adult mongrel dogs [1] (setting [4]), -34% with adult mongrel dogs [1] (setting [5]) and 62% with adult mongrel dogs [1] (setting [6]).

For the compound `COc1ccc(NC(=O)Nc2c(OC(C)=O)nc(C)c3cc(OC)c(OC)cc23)cc1` [Cmpd 32], the change in vivo at 1.2 mg/kg is -23% in the test with adult mongrel dogs [2] (dose 1.2 mpk, relative to controls, read-out: HR: percent change in heart rate); 1% with adult mongrel dogs [2] (dose 1.2 mpk, relative to controls, read-out: MABP: percent change in mean arterial blood pressure); 6% with adult mongrel dogs [2] (dose 1.2 mpk, relative to controls, read-out: RBF: percent change in renal blood flow); -4% with adult mongrel dogs [2] (dose 1.2 mpk, relative to controls, read-out: RVR: percent change in renal vascular resistance).

For `CCOc1cc2c(C)nc(OC(=O)C(C)C)c([N+](=O)[O-])c2cc1OC` [Cmpd 5], the change in vivo at 6.2 mg/kg is 36% with adult mongrel dogs [2] (setting [7]), -10% in the test with adult mongrel dogs [2] (setting [8]), 42% in the test on adult mongrel dogs [2] (setting [9]) and -36% with adult mongrel dogs [2] (setting [10]).

`CCOc1cc2c(C)nc(OC(=O)N3CCN(C(=O)OC(C)(C)C)CC3)c([N+](=O)[O-])c2cc1OC` [Cmpd 69]: the change in vivo at 6.2 mg/kg was 21% in the test with adult mongrel dogs [2] (setting [11]), 6% in the test on adult mongrel dogs [2] (setting [12]), 24% in the test with adult mongrel dogs [2] (setting [13]) and -14% in the test on adult mongrel dogs [2] (setting [14]).

Regarding `C=CCNC(=O)Nc1c(OC(=O)N(CC)CC)nc(C)c2cc(OC)c(OC)cc12` [Cmpd 50], the change in vivo at 1.2 mg/kg in the test with adult mongrel dogs [2] (setting [15]) was -2%; in the test with adult mongrel dogs [2] (setting [16]), 0%; with adult mongrel dogs [2] (setting [17]), 20%; in the test with adult mongrel dogs [2] (setting [18]), -16%.

With `CCCCNC(=O)Nc1c(OC(=O)N2CCN(C(=O)OC(C)(C)C)CC2)nc(C)c2cc(OC)c(OC)cc12` [Cmpd 76], the change in vivo at 1.2 mg/kg with adult mongrel dogs [2] (setting [15]) is -9%; with adult mongrel dogs [2] (setting [16]), -2%; in the test with adult mongrel dogs [2] (setting [17]), 23%; in the test on adult mongrel dogs [2] (setting [18]), -22%.

For the compound `CCN(CC)C(=O)Oc1nc(C)c2cc(OC)c(OC)cc2c1NC(N)=O` [Cmpd 47, 3-Diethylcarbamyloxy-6,7-dimethoxy-1-methyl-4-ureidoisoquinoline], the change in vivo at 1.2 mg/kg in the test with adult mongrel dogs [2] (setting [15]) is -3%; in the test with adult mongrel dogs [2] (setting [16]) it was 11%; with adult mongrel dogs [2] (setting [17]), 17%; in the test with adult mongrel dogs [2] (setting [18]), -4%.

In the case of `COc1cc2c(C)nc(OC(C)=O)c(N(C(C)=O)C(C)=O)c2cc1OC` [Cmpd 17, 4-N,N-Diacetamido-3-acetoxy-6,7-dimethoxy-1-methylisoquinoline], the change in vivo at 6.2 mg/kg in the test on adult mongrel dogs [2] (setting [7]) is -12%; in the test on adult mongrel dogs [2] (setting [8]), 13%; in the test on adult mongrel dogs [2] (setting [9]), 63%; with adult mongrel dogs [2] (setting [10]), -24%.

The values above are taken from US4880817A, “O-functionalized derivatives of substituted isoquinolin-3-ols having cardiotonic and/or phosphodiesterase fraction III inhibiting properties and/or renal vasodilating properties” (Ortho Pharmaceutical Corporation, priority 1987, dated 1989).
